Marks after values point to notes of the source that are not given here.
Key:
[1] = system: U-87 MG cells; assay: Cell cycle analysis of U-87 MG cells (cell cycle reagent, propidium iodide); assay type: cell-based; settings: 25 nM, 72 hour treatment; proportion of cells in cell cycle phase, mean±SD, n=3
Method: (§1) U-87 MG cells may be plated at a density of 8×10^5 cells/150-mm dish. 48 hours after plating, cells may be treated with vehicle control or 25 nM docetaxel for 72 hours. At the end of treatment, cells may be harvested by trypsinization, and an aliquot of live/unfixed cells may be used to determine cell number, PS externalization, and caspase-3/7 activity using a cell analyzer. Remaining cells may be fixed for cell cycle analysis using a cell analyzer and DNA fragmentation analysis by BD LSRII Flow Cytometry as described below.
Cleavage by active caspase-3/7 releases the dye within the cell and results in translocation to the nucleus, binding to DNA and high fluorescence. For cell cycle analysis, an ethanol-fixed cell suspension may be obtained by taking an aliquot of cell suspension, pelleting by centrifugation, resuspending in PBS, and fixing in 70% ethanol at −20° C. Fixed cells may be washed in PBS/0.2% BSA, pelleted by centrifugation, resuspended in a cell cycle reagent, and incubated for 30 minutes in the dark at room temperature according to manufacturer's protocol. A cell cycle reagent may be a proprietary formulation containing the DNA intercalating dye propidium iodide and RNAse A. The multiparametric fluorescent detection of individual cells may be performed by a cell analyzer, a microcapillary flow cytometer equipped with a 532-nm laser, a forward scatter and two fluorescence (YLW 576/26, RED 680/30) detectors. Data acquisition and analysis of count & viability, Annexin V & dead cell, and caspase-3/7 assays may be done by analysis software. Post-acquisition analysis of cell cycle data may be performed using software (e.g., FlowJo 7.6.5).
Table 5 is a cell cycle analysis of U-87 MG cells after 72 hour treatment with 25 nM docetaxel. At the end of 72 hour treatment, cells may be harvested and cell cycle may be determined by incubating the cells in a cell cycle reagent and following the manufacturer's protocol. Data represent the mean±SD of three independent biological replicates (*p<0.1).

[2] = system: U-87 MG cells; assay: PS externalization (Annexin V staining) in U-87 MG cells; assay type: cell-based; settings: 25 nM, 72 hours, vs vehicle control
Method: as §1
(§2) U-87 MG cells harvested by trypsinization may be pooled with media plus washes and pelleted by centrifugation. The cells may be re-suspended in complete media diluted 1:10 with PBS (1% FBS/PBS). For determination of count and viability, an aliquot of the cell suspension may be diluted 1:10 with a count & viability reagent, which differentially stains viable and non-viable cells based on their permeability to two DNA binding dyes, and incubated for 5 minutes in the dark at room temperature according to manufacturer's protocol. For detection of phosphatidylserine (PS) externalization, an aliquot of cell suspension appropriately diluted in 1% FBS/PBS may be mixed 1:1 with an Annexin V & dead cell reagent and incubated for 20 minutes in the dark at room temperature according to manufacturer's protocol. […]

[3] = system: U-87 MG cells; settings: 25 nM, 72 hours; "has been shown"; cited from earlier work
[4] = system: U-87 MG cells; assay: Caspase-3/7 activation in U-87 MG cells; assay type: cell-based; settings: 25 nM, 72 hours, vs vehicle control
Method: as §1
U-87 MG cells harvested by trypsinization may be pooled with media plus washes and pelleted by centrifugation. The cells may be re-suspended in complete media diluted 1:10 with PBS (1% FBS/PBS). […]
Cleavage by active caspase-3/7 releases the dye within the cell and results in translocation to the nucleus, binding to DNA and high fluorescence. […] A cell cycle reagent may be a proprietary formulation containing the DNA intercalating dye propidium iodide and RNAse A. The multiparametric fluorescent detection of individual cells may be performed by a cell analyzer, a microcapillary flow cytometer equipped with a 532-nm laser, a forward scatter and two fluorescence (YLW 576/26, RED 680/30) detectors. […]

[5] = system: U-87 MG cells; assay: DNA fragmentation of U-87 MG cells (APO-BRDU, flow cytometry); assay type: cell-based; settings: 25 nM, 72 hour treatment; percentage of the cell population, mean±SD, n=2
Method: as §1
For analysis of DNA fragmentation, U-87 MG cells may be harvested by trypsinization, collected by centrifugation, fixed in 2% formaldehyde in PBS, and permeabilized in 70% EtOH at −20° C. DNA strand breaks in cells undergoing apoptosis may be indirectly labeled with bromodeoxyuridine by terminal transferase and detected by FITC-conjugated monoclonal antibody to bromodeoxyuridine using the APO-BRDU kit according to manufacturer's protocol. Cells may be counterstained with 5 μg/ml propidium iodide containing RNase A for detection of total DNA, and two-color analysis of DNA strand breaks and cell cycle may be achieved by flow cytometry. Flow cytometric analysis may be performed on a BD LSR II Flow Cytometer equipped with three excitation lasers (405-nm, 488-nm and 633-nm). For DNA fragmentation analysis, FITC and PI signals may be collected by 488-nm octagon detection array with no color compensation. 10,000 events gated on single cell populations may be collected and post-acquisition analysis may be performed using software FlowJo 7.6.5.
Table 6 is an analysis of DNA fragmentation of U-87 MG cells after 72 hour treatment with 25 nM docetaxel. DNA fragmentation may be determined by flow cytometry as described above.

[6] = system: U-87 MG cells; assay: U-87 MG cell number (count & viability) after docetaxel treatment; assay type: cell-based; settings: 25 nM docetaxel, 72 hours, vs vehicle control, not significant
Method: as §1, §2

Structure (SMILES): CC(=O)O[C@@]12CO[C@@H]1C[C@H](O)[C@@]1(C)C(=O)[C@H](O)C3=C(C)[C@@H](OC(=O)[C@H](O)[C@@H](NC(=O)OC(C)(C)C)c4ccccc4)C[C@@](O)([C@@H](OC(=O)c4ccccc4)[C@H]21)C3(C)C [Docetaxel, docetaxel]
- G1 [1]: 39.7 ± 4.8*
- G2/M [1]: 22.1 ± 4.4
- S [1]: 26.7 ± 1.7*
- Sub-G0 [1]: 9.9 ± 3.9*
- Annexin V positive cells [2]: significant increase
- arresting cell growth in U-87 MG cells, compared with temozolomide [3]: as effective as temozolomide
- caspase-3/7 activation [4]: significant increase
- DNA Frag (+) Apoptotic bodies (upper left quadrant) [5]: 0.10 ± 0.0%
- DNA Frag (+) Cells (upper right quadrant) [5]: 2.11 ± 1.69%
- DNA Frag (−) Apoptotic bodies (lower left quadrant) [5]: 3.57 ± 1.65%
- DNA Frag (−) Cells (lower right quadrant) [5]: 94.2 ± 0.07%
- decrease in U-87 MG cell number [6]: 20%
- decrease in U-87 MG cell number ([6]; listed as docetaxel): approximately 20%

Source: patent publication US10279190B2, “Treating disease with resonance generating electromagnetic fields” (Anapole Technologies Inc., priority 2016, dated 2019)
